Assay results as given in article PMC10728186, “Acid phosphatase-like proteins, a biogenic amine and leukotriene-binding salivary protein family from the flea Xenopsylla cheopis” (Communications Biology, 2023).
Where two headings read alike, the source gives them in different places.

How the values were obtained:
Format in all cases: binding
XcAP-1 [1] = biological target: T1, XcAP-1 (Xenopsylla cheopis, UniProt A2IA89); experiment: crystal structure […] A; details: co-purified from HEK293 culture, modelled from density; pocket near substituted catalytic residues; second site beside serotonin
T1 construct: mature ORF (no signal peptide) in VR1020 vector, secreted from HEK293 / Expi293; monomer; residues Asp7-Asn361 (mature count) seen in crystal; natural Gly and Ser in place of the two catalytic His
T1 sequence (A2IA89 17-374): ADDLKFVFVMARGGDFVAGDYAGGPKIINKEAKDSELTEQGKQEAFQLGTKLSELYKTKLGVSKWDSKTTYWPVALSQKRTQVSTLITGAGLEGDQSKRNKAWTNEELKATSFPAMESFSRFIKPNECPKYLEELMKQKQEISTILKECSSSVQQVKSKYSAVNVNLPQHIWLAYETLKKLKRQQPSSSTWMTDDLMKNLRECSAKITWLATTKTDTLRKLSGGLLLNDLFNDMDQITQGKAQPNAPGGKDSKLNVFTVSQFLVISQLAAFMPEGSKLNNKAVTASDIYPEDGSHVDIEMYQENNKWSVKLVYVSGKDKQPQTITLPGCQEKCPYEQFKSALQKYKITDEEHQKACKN

XcAP-1 [2] = biological target: T1, XcAP-1; experiment: isothermal titration calorimetry
Source text: isothermal titration calorimetry on XcAP-1

XcAP-2 = biological target: T2, XcAP-2 (Xenopsylla cheopis, UniProt A2IA93); experiment: isothermal titration calorimetry
T2 construct: mature ORF (no signal peptide) in pcDNA3.1(+), secreted from HEK293 / Expi293; natural Gly and Pro in place of the two catalytic His; Thr10, Ile228, His265 (mature count)
T2 sequence (A2IA93 20-378): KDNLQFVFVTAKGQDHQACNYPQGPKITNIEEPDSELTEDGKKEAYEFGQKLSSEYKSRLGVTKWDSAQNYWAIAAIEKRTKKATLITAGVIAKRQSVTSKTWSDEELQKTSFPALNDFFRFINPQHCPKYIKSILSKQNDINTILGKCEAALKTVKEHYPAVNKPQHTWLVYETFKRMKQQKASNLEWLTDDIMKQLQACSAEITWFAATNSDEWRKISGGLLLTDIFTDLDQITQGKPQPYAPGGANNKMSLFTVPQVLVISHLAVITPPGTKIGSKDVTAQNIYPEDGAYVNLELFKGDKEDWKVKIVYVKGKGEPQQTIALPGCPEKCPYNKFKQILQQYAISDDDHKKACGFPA
Source text: isothermal titration calorimetry on XcAP-2

XcAP-1 [3] = biological target: T1, XcAP-1; experiment: isothermal titration calorimetry; crystal structure […] A
XcAP-3 = biological target: T3, XcAP-3 (Xenopsylla cheopis, UniProt A2IA90); experiment: isothermal titration calorimetry
T3 construct: mature ORF (no signal peptide) in pcDNA3.1(+), secreted from HEK293 / Expi293; natural Gly and Pro in place of the two catalytic His; Thr10, Ile229, Lys266 (mature count)
T3 sequence (A2IA90 20-380): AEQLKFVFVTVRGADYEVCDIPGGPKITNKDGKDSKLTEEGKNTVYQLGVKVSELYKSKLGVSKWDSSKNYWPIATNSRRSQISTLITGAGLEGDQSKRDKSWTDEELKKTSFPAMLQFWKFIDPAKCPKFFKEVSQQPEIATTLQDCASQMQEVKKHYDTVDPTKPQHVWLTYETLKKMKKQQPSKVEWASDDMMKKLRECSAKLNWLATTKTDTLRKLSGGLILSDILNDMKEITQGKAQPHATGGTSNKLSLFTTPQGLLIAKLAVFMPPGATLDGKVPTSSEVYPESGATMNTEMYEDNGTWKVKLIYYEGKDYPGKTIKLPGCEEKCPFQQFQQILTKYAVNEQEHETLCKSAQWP
Source text: isothermal titration calorimetry on XcAP-3

Kd (XcAP-2; read-out: XcAP-2) [nM]	Compound	Kd (XcAP-1 [2]; read-out: XcAP-1) [nM]	other results
–	CCCCCC/C=C\CCCCCCCC(=O)O [palmitoleic acid]	–	crystal structure 1.75 A (XcAP-1 [1]): near the putative catalytic site of XcAP-1 was also observed, in which we modeled a palmitoleic acid
–	NC[C@H](O)c1ccc(O)c(O)c1 [Norepinephrine]	76.9	–
153	CCCCC/C=C\C\C=C/C=C/C=C/[C@@H](SC[C@H](N)C(=O)NCC(=O)O)[C@@H](O)CCCC(=O)O [LTD4]	–	–
–	CNC[C@H](O)c1ccc(O)c(O)c1 [Epinephrine]	17.7	–
–	NCCc1c[nH]c2ccc(O)cc12 [Serotonin]	–	Kd (XcAP-1 [2]; read-out: K (M^-1) (converted)): 5.92 nM; Kd (XcAP-1 [3]): 3.72 nM
60.2	CCCCC/C=C\C\C=C/C=C/C=C/[C@@H](SC[C@H](N)C(=O)O)[C@@H](O)CCCC(=O)O [LTE4]	–	–
111	CCCCC/C=C\C[C@@H](O)/C=C/C=C/C=C\[C@@H](O)CCCC(=O)O [LTB4]	–	–
78.7	CCCCC/C=C\C\C=C/C=C/C=C/[C@@H](SC[C@H](NC(=O)CC[C@H](N)C(=O)O)C(=O)NCC(=O)O)[C@@H](O)CCCC(=O)O [LTC4]	37.4	Kd (XcAP-3; read-out: XcAP-3): 65.8 nM

Compound	Kd (XcAP-2; read-out: XcAP-2) [nM]	Kd (XcAP-1 [2]; read-out: XcAP-1) [nM]	other results
NCCc1c[nH]cn1 [Histamine]	37.7	–	Kd (XcAP-3; read-out: K (M^-1) (converted)): 29.2 nM; Kd (XcAP-3; read-out: XcAP-3): 37 nM; Kd (XcAP-2; read-out: K (M^-1) (converted)): 43.9 nM
